According to patent US20240183842A1, “Supercharged Biovesicles and Methods of Use Thereof” (The General Hospital Corporation, priority 2021, published 2024):

Experiments:
HEK293T cells = assay: Inhibitor pretreatment before Bodipy TR-scEV uptake, flow cytometry; format: cell-based, human; details: for Bodipy TR fluorescence in recipient cells (scEV uptake) compared to sham / +scProtein fluorescence levels compared to sham: 1 h pretreatment, 24 h Bodipy TR-scEVs, CHL 10 μM, Bort 5 μM; for Bodipy TR fluorescence in recipient cells (scEV uptake) compared to sham: ConA 200 nM, Baf 200 nM
Description: For inhibitor treatment before scEV uptake, HEK293T cells (50,000 cells per well) were seeded in 24-well culture plates (Falcon) for 24 h in DMEM with serum. The cells were then pre-incubated with the inhibitors in Optimem without serum. […] The labelled EVs (10^7-10^8 particles) were added each well for 24 h in the presence of the indicated inhibitors. Following incubation, cells were trypsinized and analyzed based on scProtein and Bodipy TR fluorescence on a Beckman SORP 5 Laser BD Fortessa Flow Cytometer in the MGH core facility.
FLOW CYTOMETRY. Flow cytometric analysis was performed on the Beckman SORP 5 Laser BD Fortessa Flow Cytometer in the MGH core facility. Forward and side scatter signals were used to distinguish live cells from polystyrene beads. Proper gating was performed to identify positive fluorescent signals compared to non-stained or single stained controls.

[1] = molecular target: Flag-Tag affinity beads (antibody based magnetic beads); assay: elution of bead-bound NoMi-EVs with free Flag peptide, nanoluciferase bioluminescence read-out

Molecule: C/C=C/[C@H]1O[C@@](O)([C@@H](C)[C@H](O)[C@H](C)[C@H]2OC(=O)/C(OC)=C/C(C)=C/[C@@H](C)[C@@H](O)[C@@H](CC)[C@@H](O)[C@H](C)C/C(C)=C/C=C/[C@@H]2OC)C[C@@H](O[C@H]2C[C@@H](O)[C@H](OC(N)=O)[C@@H](C)O2)[C@@H]1C [concanamycin A]
- Bodipy TR fluorescence in recipient cells (scEV uptake) compared to sham (HEK293T cells): No significant decrease

Molecule: CC(C)C[C@H](NC(=O)[C@H](Cc1ccccc1)NC(=O)c1cnccn1)B(O)O [Bortezomib]
- +scProtein fluorescence levels compared to sham (HEK293T cells): increase
- Bodipy TR fluorescence in recipient cells (scEV uptake) compared to sham (HEK293T cells): increased scEV uptake
- +scProtein fluorescence in combination with Baf and ConA (HEK293T cells; Bort combined with Baf or ConA): increased

Molecule: CCN(CC)CCCC(C)Nc1ccnc2cc(Cl)ccc12 (centres unmarked) [Chloroquine]
- +scProtein fluorescence levels compared to sham (HEK293T cells): increase
- Bodipy TR fluorescence in recipient cells (scEV uptake) compared to sham (HEK293T cells): significantly increase

Molecule: CO/C1=C\C(C)=C\[C@@H](C)[C@@H](O)[C@@H](C)C/C(C)=C/C=C/[C@H](OC)[C@@H]([C@@H](C)[C@@H](O)[C@H](C)[C@@]2(O)C[C@@H](O)[C@H](C)[C@@H](C(C)C)O2)OC1=O [Bafilomycin A1]
- Bodipy TR fluorescence in recipient cells (scEV uptake) compared to sham (HEK293T cells): No significant decrease

B1: Flag-Tag peptide (peptide)
peptide: DYDKDDDK
- percent of EVs recovered from the beads by peptide elution [1]: 75%
